Where two headings read alike, the source gives them in different places.
Target: T1, human CGT (Homo sapiens, UniProt Q16880)
T1 sequence (Q16880 21-541): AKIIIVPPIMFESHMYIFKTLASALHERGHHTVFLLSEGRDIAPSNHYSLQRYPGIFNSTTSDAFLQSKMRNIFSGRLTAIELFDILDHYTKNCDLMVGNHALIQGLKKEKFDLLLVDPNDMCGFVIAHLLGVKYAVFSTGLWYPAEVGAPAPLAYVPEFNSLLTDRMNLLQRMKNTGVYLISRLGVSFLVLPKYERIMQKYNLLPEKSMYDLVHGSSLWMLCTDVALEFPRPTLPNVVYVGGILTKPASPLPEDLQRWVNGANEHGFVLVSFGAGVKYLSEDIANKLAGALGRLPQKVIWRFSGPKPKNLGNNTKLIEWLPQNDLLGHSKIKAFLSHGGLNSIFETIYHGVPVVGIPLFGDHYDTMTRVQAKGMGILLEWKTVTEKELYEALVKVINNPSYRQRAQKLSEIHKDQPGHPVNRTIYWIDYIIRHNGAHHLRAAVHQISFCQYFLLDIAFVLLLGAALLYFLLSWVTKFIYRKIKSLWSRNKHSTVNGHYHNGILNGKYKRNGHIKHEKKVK
Experiment: Assay 1: CGT Enzymatic Assay (RapidFire/MS/MS, 0.01% Tween 80)
Type: biochemical
Details: Table 1, Compounds of Formula (I) and Formula (II), CGT enzymatic assay, read-out: IC50

[1] = C6-NBD-dihydro-galactosylceramide readout

| SMILES | IC50 | IC50 [1] |
| --- | --- | --- |
| CC[C@]1(C)N(c2ccc(Cl)cc2)C(=O)N(c2ccc(Cl)cc2)C1(O)c1cccc(OC(F)(F)F)c1 (single isomer, unassigned) [Example 163-2] | < 1 µM |  |
| CC(C)(C)c1cccc(C2(O)CN(c3ccc(Cl)cc3)C(=O)N2c2ccc(Cl)cc2)c1 (stereo not shown) [Compound 128, 4-(3-(tert-butyl)phenyl)-1,3-bis(4-chlorophenyl)-4-hydroxyimidazolidin-2-one] | 10 to 50 µM |  |
| Cc1csc(C2(O)[C@@H](C)N(c3ccc(Br)cc3)C(=O)N2c2ccc(Br)cc2)c1 (stereo partly drawn) [Compound 97-2, (5R)-1,3-bis(4-bromophenyl)-4-hydroxy-5-methyl-4-(4-methylthiophen-2-yl)imidazolidin-2-one] | 1 to 10 µM |  |
| COc1cccc(C2(O)[C@H](C)N(c3ccc(Br)cc3)C(=O)N2c2ccc(Br)cc2)c1 (stereo partly drawn) [Compound 71-1, (5S)-1,3-bis(4-bromophenyl)-4-hydroxy-4-(3-methoxyphenyl)-5-methylimidazolidin-2-one] | < 1 µM |  |
| C[C@]1(c2cccc(C(F)(F)F)c2)C(O)N(c2ccc(Br)cc2)C(=O)N1c1ccc(Br)cc1 (stereo partly drawn) [Example 219-1, (4S)-1,3-bis(4-bromophenyl)-5-hydroxy-4-methyl-4-(3-(trifluoromethyl)phenyl)imidazolidin-2-one] | 10 to 50 µM |  |
| O=C1N(c2ccc(Cl)cc2)C2(CCC2)C(O)(c2cccc(OC(F)(F)F)c2)N1c1ccc(Cl)cc1 (stereo not shown) [Compound 242, 5,7-bis(4-chlorophenyl)-8-hydroxy-8-(3-(trifluoromethoxy)phenyl)-5,7-diazaspiro[3.4]octan-6-one] | < 1 µM |  |
| COc1ccc(N2C(=O)N(c3ccc(OC)cc3)C(O)(c3ccccc3)C2=O)cc1 (stereo not shown) [Example 160, 5-hydroxy-1,3-bis(4-methoxyphenyl)-5-phenylimidazolidine-2,4-dione] | > 50 µM |  |
| CCc1ccc(N2C(=O)N(c3ccc(CC)cc3)C(O)(c3cccc(C#N)c3)[C@@H]2C)cc1 (single isomer, unassigned) [Compound 104-1] | 10 to 50 µM |  |
| CCC1N(c2ccc(F)cc2)C(=O)N(c2ccc(F)cc2)C1(O)c1cccc(OC(F)(F)F)c1 (stereo not shown) [Compound 131, 5-ethyl-1,3-bis(4-fluorophenyl)-4-hydroxy-4-(3-(trifluoromethoxy)phenyl)imidazolidin-2-one] | < 1 µM |  |
| O=C1N(c2ccc(Br)cc2)CC(O)(c2cccnc2)N1c1ccc(Br)cc1 (stereo not shown) [Compound 52, 1,3-bis(4-bromophenyl)-4-hydroxy-4-(pyridin-3-yl)imidazolidin-2-one] | 10 to 50 µM |  |
| O=C1N(c2ccc(I)cc2)C(=O)C(O)(c2ccccc2)N1c1ccc(I)cc1 (stereo not shown) [Example 203, 5-hydroxy-1,3-bis(4-iodophenyl)-5-phenylimidazolidine-2,4-dione] | 10 to 50 µM |  |
| Cc1ccc(N2C(=O)N(c3ccc(C#N)cc3)C(O)(c3cccc(C#N)c3)C2(C)C)cc1 (stereo not shown) [Example 313, 3-(3-(4-cyanophenyl)-4-hydroxy-5,5-dimethyl-2-oxo-1-(p-tolyl)imidazolidin-4-yl)benzonitrile] |  | < 1 µM |
| O=C1N(c2ccc(Cl)cc2)[C@@]2(CCOC2)[C@@](O)(c2cccc(OC(F)(F)F)c2)N1c1ccc(Cl)cc1 [Compound 234-4, (4S,5R)-1,3-bis(4-chlorophenyl)-4-hydroxy-4-(3-(trifluoromethoxy)phenyl)-7-oxa-1,3-diazaspiro[4.4]nonan-2-one] | < 1 µM |  |
| C[C@@H]1N(c2ccc(C#N)cc2)C(=O)N(c2ccc(C#N)cc2)C1(O)c1cccc(OC(F)(F)F)c1 (stereo partly drawn) [Example 180-1, 4,4′-((5S)-4-hydroxy-5-methyl-2-oxo-4-(3-(trifluoromethoxy)phenyl)imidazolidine-1,3-diyl)dibenzonitrile] | < 1 µM |  |
| COc1ccc(N2C(=O)N(c3ccc(OC)cc3)C(O)(c3cccc(C#N)c3)C2(C)C)cc1 (stereo not shown) [Example 328, 3-(4-hydroxy-1,3-bis(4-methoxyphenyl)-5,5-dimethyl-2-oxoimidazolidin-4-yl)benzonitrile] |  | 1 to 10 µM |
| COc1ccc(N2C(=O)N(c3ccc(OC)cc3)C(O)(c3cccc(C#N)c3)C2C(C)C)cc1 (stereo not shown) [Example 330, 3-(4-hydroxy-5-isopropyl-1,3-bis(4-methoxyphenyl)-2-oxoimidazolidin-4-yl)benzonitrile] |  | < 1 µM |
| CC[C@H]1N(c2ccc(Cl)cc2)C(=O)N(c2ccc(Cl)cc2)C1(O)c1cccc(Cl)c1 (stereo partly drawn) [Compound 81-2, (5R)-4-(3-chlorophenyl)-1,3-bis(4-chlorophenyl)-5-ethyl-4-hydroxyimidazolidin-2-one] | < 1 µM |  |
| CCCC1N(c2ccc(Cl)cc2)C(=O)N(c2ccc(Cl)cc2)C1(O)c1cccc(Cl)c1 (stereo not shown) [Compound 114, 4-(3-chlorophenyl)-1,3-bis(4-chlorophenyl)-4-hydroxy-5-propylimidazolidin-2-one] | < 1 µM |  |
| C#Cc1cccc(C2(O)C(C)N(c3ccc(Cl)cc3)C(=O)N2c2ccc(Cl)cc2)c1 (stereo not shown) [Compound 93, 1,3-bis(4-chlorophenyl)-4-(3-ethynylphenyl)-4-hydroxy-5-methylimidazolidin-2-one] | < 1 µM |  |
| N#Cc1ccc(C2(O)CN(c3ccc(Br)cc3)C(=O)N2c2ccc(Br)cc2)cc1 (stereo not shown) [Compound 61, 4-(1,3-bis(4-bromophenyl)-4-hydroxy-2-oxoimidazolidin-4-yl)benzonitrile] | > 50 µM |  |
| O=C1N(c2ccc(Br)cc2)C(=O)C(O)(C2CCOCC2)N1c1ccc(Br)cc1 (stereo not shown) [Example 207, 1,3-bis(4-bromophenyl)-5-hydroxy-5-(tetrahydro-2H-pyran-4-yl)imidazolidine-2,4-dione] | 10 to 50 µM |  |
| N#Cc1cccc(C2(O)N(c3ccc(Cl)cc3)C(=O)N(c3ccc(Cl)cc3)C23CNC3)c1 (stereo not shown) [Compound 300, 3-(5,7-bis(4-chlorophenyl)-8-hydroxy-6-oxo-2,5,7-triazaspiro[3.4]octan-8-yl)benzonitrile 2,2,2-trifluoroacetate] |  | 1 to 10 µM |
| O=C1N(c2ccc(Br)cc2)C(=O)C(O)(c2ccc(OC3CC3)cc2)N1c1ccc(Br)cc1 (stereo not shown) [Example 164, 1,3-bis(4-bromophenyl)-5-(4-cyclopropoxyphenyl)-5-hydroxyimidazolidine-2,4-dione] | > 50 µM |  |
| CCC1(O)C(c2ccccc2)N(c2ccc(Br)cc2)C(=O)N1c1ccc(Br)cc1 (stereo not shown) [Example 45] | 1 to 10 µM |  |
| Cc1ccc(N2C(=O)N(c3ccc(Cl)cc3)C(O)(c3cccc(C#N)c3)C2(C)C)cc1 (stereo not shown) [Example 317, 3-(3-(4-chlorophenyl)-4-hydroxy-5,5-dimethyl-2-oxo-1-(p-tolyl)imidazolidin-4-yl)benzonitrile] |  | < 1 µM |
| CCC[C@H]1N(c2ccc(Cl)cc2)C(=O)N(c2ccc(Cl)cc2)C1(O)c1cccc(C(F)(F)F)c1 (stereo partly drawn) [Compound 87-2, (5R)-1,3-bis(4-chlorophenyl)-4-hydroxy-5-propyl-4-(3-(trifluoromethyl)phenyl)imidazolidin-2-one] | < 1 µM |  |
| CC#Cc1cccc(C2(O)[C@@H](C)N(c3ccc(Cl)cc3)C(=O)N2c2ccc(Cl)cc2)c1 (stereo partly drawn) [Compound 103-2, (5R)-1,3-bis(4-chlorophenyl)-4-hydroxy-5-methyl-4-(3-(prop-1-yn-1-yl)phenyl)imidazolidin-2-one] | < 1 µM |  |
| CC1(C)N(c2ccc(Cl)cc2)C(=O)N(c2ccc(C#N)cc2)C1(O)c1cccc(OC(F)(F)F)c1 (stereo not shown) [Compound 273, 4-(3-(4-chlorophenyl)-5-hydroxy-4,4-dimethyl-2-oxo-5-(3-(trifluoromethoxy)phenyl)imidazolidin-1-yl)benzonitrile] |  | < 1 µM |

Reference: patent US20190134005A1 (BioMarin Pharmaceutical Inc., priority 2016, published 2019)
